Measurements taken from patent publication US20080124270A1, “Compounds Useful as Metal Chelators” (BRACCO IMAGING S.P.A., priority 2003, published 2008).

Experiments:
[1] = relaxivity r1 of the gadolinium complex; format: physicochemical; conditions: for r1: relaxivity of the compound when complexed with gadolinium
Excerpt: (§1) One measure of a complex of a paramagnetic metal and a chelation compound is its signal enhancing effect when used as a contrast agent for MRI. The effectiveness of a paramagnetic complex (e.g., a complex including Gd (III)) in decreasing the relaxation time (T1) of the vicinal water protons is an intrinsic property called relaxivity, r1, which is given by the following equation: […]

[2] = relaxivity r1 of the gadolinium complex in Sucrose 80; format: physicochemical; conditions: relaxivity of the compound when complexed with gadolinium
Excerpt: as §1

Row | SMILES | r1 [1] [mM⁻¹ s⁻¹] | r1 in Sucrose 80 [2] [mM⁻¹ s⁻¹] | relaxivity compared to DOTA or DO3A ([1]; when it complexes gadolinium, result in words)
1 | O=C(O)CN1CCN(CC(=O)O)CCN(CC(=O)O)CCN(CC(=O)O)CC1 [DOTA, 1,4,7,10-tetraazacyclododecane-1,4,7,10-tetraacetic acid, reference compound] | 3.5 | 35 | 
2 | CC(N1CCN(CC(=O)O)CCN(CC(=O)O)CCN(CC(=O)O)CC1)P(=O)(O)O (stereo not shown) [EPDO3A (Na), 10-(1-phosphonoethyl)-1,4,7,10-tetrazacycododecane-1,4,7-triacetic acid] | 4.1 | 64 | 
3 | O=C(O)CN1CCN(CC(=O)O)CCN(CP(=O)(O)O)CCN(CC(=O)O)CC1 [MPDO3A (Na), 10-Phosphonomethyl-1,4,7,10-tetraazacyclododecane-1,4,7-triacetic acid] | 4.1 | 65 | surprisingly high relaxivity
